Usually melting point stands for the temperature of the solid-liquid transition.

Melting point data for 34 molecules are collected here from a melting point compilation (Tetko et al.; mined from patent text by program, amines drawn as free bases though some values may be those of a salt).

Regarding `Cc1ccccc1Sc1ccc2c(c1)CC[C@H]1NC(=O)CC[C@]21C`, the melting point was found to be 192 °C. The figure for `CNC(=O)c1ccccc1Nc1nc(Nc2cc3c(cc2OC)N(C)C(=O)OCC3)ncc1Cl` is 235 to 237 °C; for `CCOc1cc(-c2cc(C(F)(F)F)n3ncc(C(=O)Nc4cc(S(=O)(=O)NC(C)(C)CO)sc4Cl)c3n2)ccc1C(F)(F)F` it is 234 °C; for `COCCOC[C@H](CC1(C(=O)O)CCCC1)C(=O)OC(C)(C)C` it is 86 to 87 °C. The figure for `O=C(c1sc(NC(=O)N2CCOCC2)nc1-c1ccco1)C1CCCC1` is 108 to 110 °C; for `COc1nc2ccccc2nc1NC(=S)N1CCN(c2ccc(C(C)=O)cc2)CC1` it is 235 to 237 °C; for `CN1C(=O)C2(COc3cc4c(cc32)OCCO4)c2c(C(=O)NC3CCCCC3)cccc21` (centres undefined) it is 139 to 140 °C. The result for `CCCNC(=O)C1(CCCCP(=O)(c2ccccc2)c2ccccc2)c2ccccc2-c2ccccc21` reads 163 to 165 °C; that for `COc1ccc(NC(=O)c2ccc(F)c(F)c2)cc1NS(=O)(=O)c1cccc(C#N)c1`, 212 to 214 °C. For the molecule `COC(=O)c1c(C(=O)OC)c(-c2ccc(OC)c(OC)c2)c2sccc2c1O`, the melting point fell in the range of 147 to 148 °C.

As to `Cn1ncc(C(=O)N2CCCC2)c1C(=O)Nc1ccc2nc(-c3ccccc3)nn2c1`, the melting point worked out at 210 °C.

In the case of `Cc1cccc(NC(=O)NC2N=C(N3CCCCCC3)c3ccccc3N(C)C2=O)c1` (single isomer, unassigned; (+)), the melting point lay in the range of 172 to 175 °C. The figure for `O=[N+]([O-])c1ccc(Cl)cc1NC1Cc2ccccc2C1` is 108 °C; for `COc1cc2ncnc(N3CCc4cccc(C)c43)c2cc1OC` it is 146 to 147 °C. As to `CCCCc1nc2cc(C(=O)OC)ccc2[nH]1`, the melting point lay within 108 to 110 °C.

The molecule `COc1cccc2c(=O)c3cccc(OC)c3sc12` yielded a melting point of 248 to 250 °C. The result for `CCCCOCCOc1ccc(-c2ccc(N3CCC(C)CC3)c(C=CC(=O)O)c2)cc1` reads 159 to 160 °C; that for `C#CCOc1cc(-n2c(=O)cc(C(F)(F)F)[nH]c2=O)ccc1C`, 202 to 204 °C; that for `N#Cc1ccc([N+](=O)[O-])cc1[N+](=O)[O-]`, 88 to 92 °C.

Consider `CCCNC(=S)NS(=O)(=O)N1CCC(CCNC(=O)c2cc(Cl)ccc2OC)CC1`, for which the melting point was in the range of 119 to 121 °C. The figure for `CCN1CCCC1CNC(=O)c1cc(Cl)c(O)cc1OC` (centres undefined) is 185 to 186 °C; for `Nc1cc(F)c(NCC(O)CO)cc1[N+](=O)[O-]` (centres undefined) it is 129 to 130 °C; for `CC(c1cccc(-c2ncc(OCCCN(C)C)cn2)c1)n1nc(-c2cccc(C#N)c2)ccc1=O` (centres undefined) it is 105 to 107 °C. The result for `CCCCCNc1nc(SC)nc2c(C)n[nH]c12` reads 88 to 90 °C; that for `CCn1nc(-c2ccccc2)c(C(C)=O)c(Nc2cccc(C(=O)O)c2Cl)c1=O`, 255 to 256 °C; that for `OC(CN1CCNC1=S)c1cc(Cl)cc(Cl)c1` (centres undefined), 158 °C.

Take `COC(=O)C(C)Oc1ccc(Oc2ccc3ccccc3n2)cc1` (centres undefined): the melting point was 95 to 100 °C. The result for `O=[N+]([O-])c1ccc2c(C3=CCN(C[C@H](O)COc4cccc5[nH]ccc45)CC3)c[nH]c2c1` reads 225 to 230 °C. The result for `CS(=O)c1ccc(COC(=O)N2CCN(CC3(C)Cn4cc([N+](=O)[O-])nc4O3)CC2)cc1` (centres undefined) reads 117 to 121 °C; that for `COc1ccccc1-c1c(CC(=O)O)oc(=O)c2ccccc12`, 143 to 144 °C; that for `CC1CNc2c(cccc2[N+](=O)[O-])C(=O)N1Cc1ccccc1` (centres undefined), 125 °C. The figure for `CC(=O)c1ccc(SC2SCC(O)C(O)C2O)cc1` (centres undefined) is 175 °C; for `CC(C)Sc1nc(-c2ccc(Cl)cc2)c(CCC(=O)O)o1` it is 132 to 133 °C; for `O=[N+]([O-])c1cccc(O)c1O` it is 82 to 85 °C.
